According to patent publication US20020150629A1, “Zinc-supplementary compositions for oral administration” (priority 2000, published 2002):
One block for each molecule: values may come before it.

Assay: Bioavailability of zinc after administration to the duodenum of rats (plasma zinc AUC vs intravenous zinc acetate)
Settings: for absorption promoting action (in words): 10 mg/kg
Protocol: Wistar rats of 8 weeks age were used in this experiment. The rats were fasted for 24 hours before administration of zinc acetate alone, a mixture of zinc acetate and a dipeptide listed in Table 1 at a molar ratio of dipeptide to zinc of 1:1, or a complex of zinc and L- or D-carnosine at a molar ratio of dipeptide to complex of 1:1. Each test composition was administered to the duodenum of ether-anesthetized rat as a solution or suspension in physiological saline. The dose of the composition was 10 mg/kg body weight as zinc in each case. Blood samples were collected before administration, and 1,3,5 and 7 hours after the administration. Plasma levels of zinc were determined using Zn Test Wako Kit (available from Wako Pure Chemical Industries, Ltd.). […] The bioavailability (BA) of zinc was calculated by the above comparison.
Using the same method as above, the bioavailability of zinc was determined at varying molar ratios of L-carnosine to zinc from zero to 30. The results are shown in FIG. 1 of the accompanying drawings.
The dose of a 1:1 molar mixture of L-carnosine and zinc acetate was varied from 3 mg/kg to 100 mg/kg in terms of zinc. Analogous to Part 1, AUCs and bioavalabilities were determined and compared with those of administration of zinc acetate alone. The results are shown in FIG. 2 of the accompanying drawing.

BA (%) bioavailability of zinc (rat, in vivo): 6.7 ± 0.8%
Molecule: D-carnosine zinc complex

BA (%) bioavailability of zinc (rat, in vivo): 11.7 ± 0.4 %
Molecule: L-carnosine zinc complex

Continued, molecule first:

Molecule: NCCC(=O)N[C@H](Cc1cnc[nH]1)C(=O)O [D-carnosine]
absorption promoting action (in words) (rat, in vivo): not

Molecule: NCCC(=O)N[C@@H](Cc1cnc[nH]1)C(=O)O [L-carnosine, N-β-alanyl-L-histidine]
bioavailability of zinc at varying molar ratios of L-carnosine to zinc (FIG. 1) (rat, in vivo): increased with increase in the molar ratio
absorption promoting action (in words) (rat, in vivo): exhibited a similar absorption promoting action

Molecule: CC(=O)[O-].CC(=O)[O-].[Zn+2] [Zinc acetate]
BA (%) bioavailability of zinc (fasted Wistar rats, administered to the duodenum, 10 mg/kg as zinc, dipeptide:zinc 1:1, AUC up to 7 hours vs i.v. zinc acetate 1 mg/kg): 8.6 ± 0.3%
